# Data as given in article PMC8041433 (Environmental Health Perspectives, 2021).
# Several values for one entry are separate records, joined by “and”; a condition that tells them apart may be missing. Equal values may be shown once. Read-outs that look alike come from different tables or passages of the source.
# Legend:
# [1] = molecular target: T1, recombinant human AChE (Homo sapiens, UniProt P22303); assay: biochemical; format: biochemical; conditions: for AC50: AC50 (uM)
# [2] = molecular target: T1, recombinant human AChE; assay: biochemical
# [3] = molecular target: AChE in SH-SY5Y spheroids (Homo sapiens, UniProt P22303); assay: cell-based
# AChE in SH-SY5Y spheroids, sequence (P22303 32-614): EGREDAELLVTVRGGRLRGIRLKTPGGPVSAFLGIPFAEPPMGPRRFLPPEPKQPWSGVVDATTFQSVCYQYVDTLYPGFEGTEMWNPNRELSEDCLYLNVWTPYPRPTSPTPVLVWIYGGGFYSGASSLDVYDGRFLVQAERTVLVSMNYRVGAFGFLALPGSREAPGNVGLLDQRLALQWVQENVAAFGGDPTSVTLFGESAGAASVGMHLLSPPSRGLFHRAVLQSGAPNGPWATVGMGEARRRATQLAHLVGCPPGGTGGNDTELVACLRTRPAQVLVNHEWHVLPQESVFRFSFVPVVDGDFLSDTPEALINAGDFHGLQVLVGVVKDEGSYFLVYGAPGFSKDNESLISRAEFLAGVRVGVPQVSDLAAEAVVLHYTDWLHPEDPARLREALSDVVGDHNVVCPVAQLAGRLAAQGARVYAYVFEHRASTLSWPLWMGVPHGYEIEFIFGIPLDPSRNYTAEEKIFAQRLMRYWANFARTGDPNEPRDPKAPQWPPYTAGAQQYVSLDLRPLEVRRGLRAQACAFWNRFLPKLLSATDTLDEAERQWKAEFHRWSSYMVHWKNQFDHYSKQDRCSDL
# [4] = molecular target: T1, recombinant human AChE
# [5] = molecular target: T1, recombinant human AChE; assay: biochemical; remark: listed apart in the source
# [6] = molecular target: AChE in SH-SY5Y cells (Homo sapiens, UniProt P22303); assay: cell-based
# AChE in SH-SY5Y cells, sequence (P22303 32-614): as above
# [7] = molecular target: AChE in neural stem cells (Homo sapiens, UniProt P22303); assay: cell-based
# AChE in neural stem cells, sequence (P22303 32-614): as above
# [8] = molecular target: AChE in neural stem cell spheroids (Homo sapiens, UniProt P22303); assay: cell-based
# AChE in neural stem cell spheroids, sequence (P22303 32-614): as above
# [9] = molecular target: T1, recombinant human AChE; assay: biochemical; remark: listed apart in the source
# [10] = potency (IC50), Enzyme with microsomes
# [11] = potency (IC50), SH-SY5Y spheroids (24 h)
# [12] = potency (IC50), SH-SY5Y spheroids (48 h)
# [13] = potency (IC50), SH-SY5Y cells monolayer
# [14] = potency (IC50), Neural stem cell spheroid (24 h)
# [15] = potency (IC50), Neural stem cell spheroid (48 h)
# Wherever IR or R is given: key: Reversible (R); Irreversible (IR); ND, not detected in enzyme-based AChE inhibition assay from current study.
# T1 sequence (P22303 32-614): as above
SMILES,AC50 [1],"IC50 [2, 10] [µM]","IC50 [3, 11] [µM]","IC50 [3, 12] [µM]",CC-v2 (curve classes) [4],Efficacy [4],IC50 [5] [µM],CC-v2 (curve classes) [6],IC50 ([6]; IC50 (uM)),"IC50 [6, 13] [µM]",IC50 [7] [µM],"IC50 [8, 14] [µM]","IC50 [8, 15] [µM]",CC-v2 (curve classes) [9],Efficacy [9],"IC50 ([9]; potency (IC50), Enzyme) [µM]",IC50 ([9]; IC50 (uM)),other results
CCOC(=O)CCN(SN(C)C(=O)Oc1cccc2c1OC(C)(C)C2)C(C)C [Benfuracarb],0.885 µM and 0.703 µM and 0.789 µM and 1.25 µM and 0.993 µM and 0.627 µM and 0.444 µM and 0.314 µM and 0.498 µM,1.4,1.76,0.84,-1.1,-96.321,1.85 ± 0.24,-1.1,0.252 µM and 0.356 µM and 0.0448 µM,1.25,7.67,12.1,12.6,-1.1,-95.401,4.97,,
"O=c1[nH]c2ccc([S+]([O-])CCN3CCC(Cc4ccc(F)cc4)CC3)cc2o1 (stereo not drawn) [Besonprodil, reference compound]",14 µM (2×) and 9.93 µM (2×) and 15.7 µM (2×) and 7.03 µM,15.8 ± 1.81,4.75 ± 3.24,7.44 ± 1.68,-2.1,-73.433,16.4 ± 1.11,-1.1,6.33 µM,8.57 ± 1.17,15.8 ± 1.81,11.5 ± 3.7,,-1.1,-92.894,7.92 ± 0.91,,"IR or R [1]: R; potency (IC50), Neural stem cell spheroid (48 h) [8]: Inactive"
CNC(=O)Oc1cccc2c1OC(C)(C)C2 [Carbofuran],993 nM (2×) and 1.11 µM (2×) and 885 nM and 125 nM and 314 nM and 157 nM,0.22 ± 0.04,0.64 ± 0.97,0.27 ± 0.05,-1.1,,0.23 ± 0.03,-1.1,0.0894 µM and 0.725 µM and 0.647 µM and 0.1 µM and 0.458 µM,0.29 ± 0.05,2.19 ± 0.61,2.44 ± 0.61,4.82 ± 0.66,-1.1,,0.09,,
CCOP(=S)(OCC)SCSc1ccc(Cl)cc1 [Carbophenothion],19.3 µM and 17.2 µM and 21.7 µM,3.74,28.1,19.6,4,-18.784,,,89.4 µM,,2.96,2.19,3.31,-2.2,-28.575,,89.4 µM,"potency (IC50), Enzyme-based assay with heat-inactivated microsomes [5]: Inactive; potency (IC50), SH-SY5Y cells monolayer [6]: Inactive; AChE inhibition (result in words) [9]: did not show effects; potency (IC50), Enzyme [9]: Inactive"
CCCCN(CCCC)SN(C)C(=O)Oc1cccc2c1OC(C)(C)C2 [Carbosulfan],993 nM (3×) and 1.11 µM and 885 nM,0.44,0.46,0.68,-1.1,,1.36 ± 0.19,-1.1,0.159 µM and 0.809 µM and 0.126 µM and 1.14 µM and 0.224 µM and 0.573 µM,3.23,10.9,5.25,8.89,-1.1,,1.67,,IR or R [1]: R; IC50 ([2]; IC50 (uM)): 3.56 µM and 0.573 µM
CCOP(=S)(OCC)OC(Cl)C(Cl)(Cl)Cl (stereo not drawn) [Chlorethoxyfos],1.57 µM,5.86,33.2,,-1.1,-100.975,65.2 ± 4.42,-2.1,35.6 µM,28.3,46.2,42.8,47,-2.1,-89.198,60.4,79.6 µM,"IC50 ([2]; IC50 (uM)): 28.3 µM; IC50 ([3]; read-out: potency (IC50), SH-SY5Y spheroids (48 h)): 37.3 µM; IC50 ([6]; read-out: IC50): 31.7 µM"
"CCOP(=S)(OCC)Oc1nc(Cl)c(Cl)cc1Cl [Chlorpyrifos, reference compound]",28 µM and 44.4 µM and 62.7 µM and 49.8 µM and 55.9 µM,1.4,41.7,36.7,-1.1,,95.7 ± 6.24,-2.1,35.6 µM and 35.7 µM and 44.9 µM and 63.5 µM,41.1,11.9,,2.58,,,48,89.4 µM and 79.9 µM and 89.6 µM,"IC50 ([6]; read-out: IC50): 39.9 µM and 40 µM; IC50 ([8]; read-out: potency (IC50), Neural stem cell spheroid (24 h)): 1.21 µM"
